Columns and labels:
KRAS2B(G12C) = target: T1, KRAS2B(G12C) (Homo sapiens, UniProt P01116, G12C); experiment: KRAS(G12C) homomultimeric complexes, NanoBiT oligomer configuration with HiBiT tag; assay type: binding; conditions: LgBiT-KRAS2B(G12C) and HiBiT-KRAS2B(G12C)
T1 construct: expressed in transfected cells; host or cells: HEK293
Experimental: To explore this concept, the NanoBiT™ Technology was used to form KRAS multimeric (e.g., dimer) complexes by NanoBiT tagging of KRAS, wherein BRET donor signal originates from an oligomeric KRAS. In a tissue culture flask, HEK293 cells per well were transfected with KRAS-NanoBiT fusions, LgBiT-KRAS2B(G12C) and HiBiT-KRAS2B(G12C) expressed from pNB3K or pFN38A plasmids along with pGEM-3Z carrier DNA (1:1:8 ratio by mass). Transfections were performed using 3:1 FuGENE HD:plasmid ratios. 24 hours post transfection, cells were treated with compound JRW-2220 and BI-2852.
(§1) After incubation in live cells, NanoBRET-TE substrate solution was added to a final concentration of 1×, and BRET was measured on a Glomax Discover plate reader.
The assay was also performed in digitonin permeabilized cells. Even after permeabilization, donor signal levels remained significant due to the use of the HiBiT tag, facilitating measurement of target engagement.

KRAS2B(G12V) = target: T2, KRAS2B(G12V) (Homo sapiens, UniProt P01116, G12V); experiment: Target engagement at KRAS(G12V) homomultimeric complexes, NanoBiT oligomer configuration with SmBiT tag; assay type: binding; conditions: live HEK293 cells, LgBiT-KRAS2B(G12V) and SmBiT-KRAS2B(G12V), tracer JRW-2192, FIG. 5
T2 construct: expressed in transfected cells; host or cells: HEK293
Experimental: To explore this concept, the NanoBiT™ Technology was used to observe KRAS multimeric (e.g., dimer) complexes by NanoBiT tagging of KRAS, wherein BRET donor signal originates from an oligomeric KRAS. In a tissue culture flask, HEK293 cells per well were transfected with KRAS-NanoBiT fusions, LgBiT-KRAS2B(G12V) and SmBiT-KRAS2B(G12V) expressed from pNB3K or pNB4K plasmids along with pGEM-3Z carrier DNA (1:1:8 ratio by mass). Transfections were performed using 3:1 FuGENE HD:plasmid ratios. 24 hours post transfection, cells were treated with compound JRW-2192 and BI-2852.
as §1

Cn1cnc(Cn2ccc3ccc(CNCc4[nH]c5ccccc5c4[C@H]4NC(=O)c5ccc(O)cc54)cc32)c1 [BI-2852]
inhibition of the BRET signal induced by the tracer (functional competition) (KRAS2B(G12C); digitonin permeabilized HEK293 cells, tracer JRW-2220, FIG. 9): dose-dependent inhibition of the BRET signal | inhibition of the BRET signal induced by the tracer (functional competition) (KRAS2B(G12C); live HEK293 cells, tracer JRW-2220, FIG. 8): dose-dependent inhibition of the BRET signal | inhibition of the BRET signal induced by the tracer (functional competition) (KRAS2B(G12V)): dose-dependent inhibition of the BRET signal

From US20220064696A1, “TARGET ENGAGEMENT ASSAY FOR RAS PROTEINS” (Promega Corporation, priority 2020, published 2022)
